Experimental data taken from ChEMBL document CHEMBL5678811 (Invest New Drugs, 2014).
Active and inactive are the calls of the source. The calls are words filed in the database; no cut-off is given here.

Tests used:
[1] = test system: MV4-11; experiment: Cell cycle arrest in human MV4-11 cells assessed as accumulation of cells at G2/M-phase at 5 uM measured after 24 hrs by propidium iodide staining based flow cytometry (reference value: 15.23%); assay type: functional
[2] = Toxicity in human COLO 205 cells xenografted CD1 nu/nu mouse assessed as change in ileum histology at 50 mg/kg, po administered daily via gavage for 2 cycles of 3 weeks on/1 week rest and measured on day 41 to 69 by histopathological analysis; assay type: organism-based; conditions: in vivo, time 41-69 day
[3] = biological target: T1, Serine/threonine-protein kinase 17A (Homo sapiens) (UniProt Q9UEE5); conditions: Sf21, dose 200.0 nM
T1 sequence (whole entry): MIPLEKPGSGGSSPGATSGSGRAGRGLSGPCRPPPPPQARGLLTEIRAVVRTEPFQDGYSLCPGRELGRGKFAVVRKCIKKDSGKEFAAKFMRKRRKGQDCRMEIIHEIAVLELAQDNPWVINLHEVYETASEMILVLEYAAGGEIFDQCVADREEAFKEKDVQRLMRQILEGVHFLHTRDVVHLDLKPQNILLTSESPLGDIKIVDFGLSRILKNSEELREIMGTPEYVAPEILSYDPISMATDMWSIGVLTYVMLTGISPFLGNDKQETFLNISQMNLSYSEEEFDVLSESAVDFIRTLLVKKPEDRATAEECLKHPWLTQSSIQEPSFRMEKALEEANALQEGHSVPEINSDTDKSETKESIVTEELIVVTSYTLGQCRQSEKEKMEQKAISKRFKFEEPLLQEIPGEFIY
Description: Inhibition of recombinant human full-length N-terminal 6His-tagged DRAK1 expressed in baculovirus infected Sf21 cells at 200 nM using ZIPtide as substrate relative to control

[4] = test system: MV4-11; experiment: Cell cycle arrest in human MV4-11 cells assessed as accumulation of cells at S-phase at 2.5 uM measured after 24 hrs by propidium iodide staining based flow cytometry (reference value: 23.35%); assay type: functional
[5] = biological target: T2, Dual specificity tyrosine-phosphorylation-regulated kinase 2 (Homo sapiens) (UniProt Q92630); conditions: Sf21, dose 200.0 nM
T2 sequence (whole entry): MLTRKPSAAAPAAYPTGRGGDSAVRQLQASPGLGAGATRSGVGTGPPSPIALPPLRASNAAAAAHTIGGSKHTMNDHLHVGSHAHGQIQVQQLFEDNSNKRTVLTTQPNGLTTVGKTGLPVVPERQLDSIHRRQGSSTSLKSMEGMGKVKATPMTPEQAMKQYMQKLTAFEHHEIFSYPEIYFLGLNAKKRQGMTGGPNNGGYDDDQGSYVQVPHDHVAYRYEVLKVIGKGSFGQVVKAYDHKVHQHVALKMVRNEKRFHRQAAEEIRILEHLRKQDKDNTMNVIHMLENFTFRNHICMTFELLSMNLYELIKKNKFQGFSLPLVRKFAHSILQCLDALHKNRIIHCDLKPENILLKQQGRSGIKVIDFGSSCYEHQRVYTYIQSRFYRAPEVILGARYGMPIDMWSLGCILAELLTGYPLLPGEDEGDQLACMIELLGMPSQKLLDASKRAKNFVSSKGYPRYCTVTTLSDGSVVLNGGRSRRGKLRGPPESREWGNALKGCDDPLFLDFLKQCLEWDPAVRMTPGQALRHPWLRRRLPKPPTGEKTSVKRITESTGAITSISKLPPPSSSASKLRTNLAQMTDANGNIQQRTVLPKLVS
Description: Inhibition of recombinant human full-length 6His-tagged DYRK2 expressed in baculovirus infected Sf21 insect cells at 200 nM using casein as substrate relative to control

[6] = test system: COLO 205; conditions: Mus musculus, CD1, dose 100.0 mg/kg, route po, time 21.0 day
[7] = species: Mus musculus; conditions: CD1, dose 50.0 mg/kg, route po, time 17.0 day
[8] = test system: COLO 205; conditions: Mus musculus, CD1, dose 50.0 mg/kg, route po
[9] = biological target: Mitogen-activated protein kinase 10 (Homo sapiens) (UniProt P53779); conditions: Sf21, dose 200.0 nM
Mitogen-activated protein kinase 10 (Homo sapiens), sequence (P53779 whole entry): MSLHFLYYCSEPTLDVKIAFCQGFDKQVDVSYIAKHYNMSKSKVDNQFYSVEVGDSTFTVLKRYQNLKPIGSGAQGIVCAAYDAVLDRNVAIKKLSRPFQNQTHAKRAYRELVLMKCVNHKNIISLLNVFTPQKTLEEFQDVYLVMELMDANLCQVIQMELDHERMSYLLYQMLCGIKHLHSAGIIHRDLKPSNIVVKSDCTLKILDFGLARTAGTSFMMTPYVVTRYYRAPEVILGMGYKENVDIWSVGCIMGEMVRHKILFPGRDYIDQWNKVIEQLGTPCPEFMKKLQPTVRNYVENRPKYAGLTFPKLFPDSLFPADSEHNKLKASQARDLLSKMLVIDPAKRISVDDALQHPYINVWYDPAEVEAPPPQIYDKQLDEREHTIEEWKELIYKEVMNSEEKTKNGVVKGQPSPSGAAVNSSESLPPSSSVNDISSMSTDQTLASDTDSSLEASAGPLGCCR
Description: Inhibition of recombinant human N-terminal His6-tagged JNK3 expressed in baculovirus infected Sf21 insect cells relative to control

[10] = test system: MV4-11; experiment: Cell cycle arrest in human MV4-11 cells assessed as accumulation of cells at G2/M-phase at 0.32 uM measured after 24 hrs by propidium iodide staining based flow cytometry (reference value: 15.23%); assay type: functional
[11] = Toxicity in human COLO 205 cells xenografted CD1 nu/nu mouse assessed as decrease in red cell mass at 50 mg/kg, po administered daily via gavage for 56 days and measured on day 41 to 69 by hematological analysis; assay type: organism-based; conditions: in vivo, 1344 h, time 41-69 day
[12] = biological target: Cyclin-dependent kinase 5/CDK5 activator 1 (Homo sapiens) (UniProt Q00535+Q15078); conditions: Sf21, dose 200.0 nM
Cyclin-dependent kinase 5/CDK5 activator 1 (Homo sapiens), sequence (Q00535 whole entry): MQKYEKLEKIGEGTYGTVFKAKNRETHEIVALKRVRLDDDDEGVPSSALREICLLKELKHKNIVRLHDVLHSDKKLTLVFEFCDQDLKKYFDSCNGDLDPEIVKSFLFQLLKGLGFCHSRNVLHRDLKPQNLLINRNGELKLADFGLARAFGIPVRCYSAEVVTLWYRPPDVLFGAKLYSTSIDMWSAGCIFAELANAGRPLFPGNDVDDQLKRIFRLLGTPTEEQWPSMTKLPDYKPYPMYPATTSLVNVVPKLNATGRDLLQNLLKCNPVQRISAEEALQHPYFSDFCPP
Cyclin-dependent kinase 5/CDK5 activator 1 (Homo sapiens), sequence (Q15078 99-307 partner limits assumed): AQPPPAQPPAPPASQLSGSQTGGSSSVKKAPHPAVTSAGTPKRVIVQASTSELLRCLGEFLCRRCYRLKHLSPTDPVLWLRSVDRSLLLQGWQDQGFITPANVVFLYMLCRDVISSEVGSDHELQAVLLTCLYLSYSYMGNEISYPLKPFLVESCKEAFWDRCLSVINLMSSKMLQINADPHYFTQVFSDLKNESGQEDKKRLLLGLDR
Description: Inhibition of recombinant human full-length N-terminal His6-tagged cdk5/N-terminal GST-tagged p25 expressed in baculovirus infected Sf21 cells at 200 nM using histone H1 as substrate relative to control

[13] = test system: COLO 205; conditions: Mus musculus, CD1, dose 50.0 mg/kg, route po; remark: listed apart in the source
[14] = test system: COLO 205; experiment: In vivo inhibition of CDK4/CDK6 in human COLO 205 cells xenografted CD1 nu/nu mouse assessed as reduction in TopoIIalpha expression at 12.5 to 50 mg/kg, po administered via gavage measured after 24 hrs by Western blot analysis; assay type: functional, organism-based; conditions: dose 12.5-50 mg/kg
[15] = test system: COLO 205; conditions: Mus musculus, CD1, dose 50.0 mg/kg, route po, time lower 1.0 hrs, time upper […], TDE = time-dependent effect
[16] = test system: MV4-11; experiment: Cell cycle arrest in human MV4-11 cells assessed as accumulation of cells at G1-phase at 1.25 uM measured after 24 hrs by propidium iodide staining based flow cytometry (reference value: 61.42%); assay type: functional
[17] = test system: MCF-10A; experiment: Cell cycle arrest in human MCF-10A cells assessed as accumulation of cells at G1 phase by measuring increase in 2N DNA content measured after 24 hrs by propidium iodide staining based laser-scanning fluorescence cytometry; assay type: toxicity
[18] = test system: COLO 205; conditions: Mus musculus, CD1, dose 50.0 mg/kg, route po; remark: listed apart in the source
[19] = Toxicity in human COLO 205 cells xenografted CD1 nu/nu mouse assessed as decrease in red cell mass at 50 mg/kg, po administered daily via gavage for 2 cycles of 3 weeks on/1 week rest and measured on day 41 to 69 by hematological analysis; assay type: organism-based; conditions: in vivo, time 41-69 day
[20] = test system: COLO 205; conditions: Mus musculus, CD1, dose 50.0 mg/kg, route po; remark: listed apart in the source
[21] = test system: COLO 205; conditions: Mus musculus, CD1, dose 50.0 mg/kg, route po; remark: listed apart in the source
[22] = test system: MV4-11; experiment: Cell cycle arrest in human MV4-11 cells assessed as accumulation of cells at G2/M-phase at 0.08 uM measured after 24 hrs by propidium iodide staining based flow cytometry (reference value: 15.23%); assay type: functional
[23] = test system: MDA-MB-231; experiment: Cell cycle arrest in human MDA-MB-231 cells assessed as accumulation of cells at G1-phase at 0.16 uM measured after 24 hrs by propidium iodide staining based flow cytometry (reference value: 50.27%); assay type: functional
[24] = Toxicity in human COLO 205 cells xenografted CD1 nu/nu mouse assessed as body weight loss at 50 mg/kg, po administered daily via gavage for 2 cycles of 3 weeks on/1 week rest; assay type: organism-based; conditions: in vivo
[25] = test system: COLO 205; conditions: Homo sapiens, dose 25-100 mg/kg, route po, time 35.0 day

For `CCN1CCN(Cc2ccc(Nc3ncc(F)c(-c4cc(F)c5nc(C)n(C(C)C)c5c4)n3)nc2)CC1` [ABEMACICLIB], the Activity [1] was 0.54%, the Activity [2] was “Non-Toxic” and the inhibition [3] was over 90%. For the same compound, the Activity [4] was 2.99%, the inhibition [5] was over 90% and the inhibition [6] was “Active”. For the same compound, the inhibition [7] was “Active”, the inhibition [8] was “Active” and the inhibition [9] was over 90%. For the same compound, the Activity [10] was 1.82%, the Activity [11] was “Non-Toxic” and the inhibition [12] was over 90%. For the same compound, the inhibition [13] was “inactive”, the inhibition [14] was “Active” and the inhibition [15] was “Tde”. For the same compound, the Activity [16] was 93.98%, the Activity [17] was “Toxic” and the inhibition [18] was “inactive”. The Activity [19] was “Non-Toxic”, the inhibition [20] was “inactive” and the inhibition [21] was “Active”. For the same compound, the Activity [22] was 1.97%, the Activity [23] was 78.86% and the Activity [24] was “Non-Toxic”. For the same compound, the TGI [25] was “Dose-Dependent Effect”.
